Molecular target: cGAS (Homo sapiens, UniProt Q8N884)
Assay: ISD70-driven IP-10 (and IFN-β) production in THP-1 cells, ELISA
Format: cell-based
Set-up: endogenous in cells; host or cells: THP-1 (undifferentiated)
Conditions: MOE-modified ASO at 100 nM; averaged IP-10 levels relative to ISD70 condition

Chain of cGAS (Q8N884 whole entry): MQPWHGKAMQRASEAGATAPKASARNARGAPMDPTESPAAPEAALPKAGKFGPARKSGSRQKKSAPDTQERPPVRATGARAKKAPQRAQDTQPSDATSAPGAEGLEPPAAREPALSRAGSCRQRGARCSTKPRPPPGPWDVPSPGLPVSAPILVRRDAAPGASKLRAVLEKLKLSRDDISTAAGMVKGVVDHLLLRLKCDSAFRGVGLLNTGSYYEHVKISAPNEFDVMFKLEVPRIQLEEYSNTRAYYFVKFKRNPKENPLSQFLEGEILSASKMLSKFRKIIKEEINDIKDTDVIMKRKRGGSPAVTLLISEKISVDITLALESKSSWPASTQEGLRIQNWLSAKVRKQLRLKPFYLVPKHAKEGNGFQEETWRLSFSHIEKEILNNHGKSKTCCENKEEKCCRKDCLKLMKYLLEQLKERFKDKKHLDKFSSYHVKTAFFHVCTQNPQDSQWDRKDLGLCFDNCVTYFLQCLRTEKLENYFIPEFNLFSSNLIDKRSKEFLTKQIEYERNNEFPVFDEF

GAGGTCTTGGCTTCGTGGAG (antisense; 2'-MOE modified, pattern not given here) [MB21D1-523 MOE]
cGAS 100 nM: 0.380

TAGTCAAGGGCATATCCTAC (antisense; 2'-MOE modified, pattern not given here) [HPRT-732 MOE]
cGAS 100 nM: 0.848

GAACCACGTCTGCTCTAACA (antisense; 2'-MOE modified, pattern not given here) [CAMSAP1-1635 MOE]
cGAS 100 nM: 0.518

GGTCCATACCCAAGGCATCC (antisense; 2'-MOE modified, pattern not given here) [CTNN2B-2446 MOE]
cGAS 100 nM: 0.531

GGAGGTCTTGGCTTCGTGGA (antisense; 2'-MOE modified, pattern not given here) [MB21D1-524 MOE]
cGAS 100 nM: 0.450

AATCCGCCCAAAGGGAACTG (antisense; 2'-MOE modified, pattern not given here) [HPRT-1027 MOE]
cGAS 100 nM: 0.494

AGATCTGGCAGCCCATCAAC (antisense; 2'-MOE modified, pattern not given here) [CTNN2B-2516 MOE]
cGAS 100 nM: 0.677

GTCCTTGCACGTGGCTTCGT (antisense; 2'-MOE modified, pattern not given here) [EGFR-1013 MOE]
cGAS 100 nM: 0.374

TAGGCACTTTGCCTCCTTCT (antisense; 2'-MOE modified, pattern not given here) [EGFR-2859 MOE]
cGAS 100 nM: 0.378

ATGTGATGGCCTCCCATCTC (antisense; 2'-MOE modified, pattern not given here) [HPRT-333 MOE]
cGAS 100 nM: 0.439

GCGTGTCTGGAAGCTTCCTT (antisense; 2'-MOE modified, pattern not given here) [CTNN2B-809 MOE]
cGAS 100 nM: 0.241

CAACACTTCGTGGGGTCCTT (antisense; 2'-MOE modified, pattern not given here) [HPRT-665 MOE]
cGAS 100 nM: 0.686

GTGTCTTCATCGGCCCTGCC (antisense; 2'-MOE modified, pattern not given here) [CAMSAP1-2113 MOE]
cGAS 100 nM: 0.606

ACAGTGTTGAGATACTCGGG (antisense; 2'-MOE modified, pattern not given here) [EGFR-3652 MOE]
cGAS 100 nM: 0.297

GCGTATTATAGCCGATTAAC (antisense; 2'-MOE modified, pattern not given here) [NC1 2′MOE]
cGAS 100 nM: 0.504

CAATGTGATGGCCTCCCATC (antisense; 2'-MOE modified, pattern not given here) [HPRT-335 MOE]
cGAS 100 nM: 0.362

GGGAAAGGTTATGCAAGGTC (antisense; 2'-MOE modified, pattern not given here) [CTNN2B-916 MOE]
cGAS 100 nM: 0.156

GCCGCTTTTCTGTCTGGTTC (antisense; 2'-MOE modified, pattern not given here) [CTNN2B-311 MOE]
cGAS 100 nM: 0.401

ACTGACTGTCTTGAGGGTTC (antisense; 2'-MOE modified, pattern not given here) [MB21D1-1483 MOE]
cGAS 100 nM: 0.221

TCGCACTTCAGTCTGAGCAG (antisense; 2'-MOE modified, pattern not given here) [MB21D1-719 MOE]
cGAS 100 nM: 0.305

CAAGGCCCTTCGCACTTCTT (antisense; 2'-MOE modified, pattern not given here) [EGFR-1225 MOE]
cGAS 100 nM: 0.490

GGAGATTTCAGAGCAGCTTC (antisense; 2'-MOE modified, pattern not given here) [EGFR-4885 MOE]
cGAS 100 nM: 0.466

GGTGTCCTTGCACGTGGCTT (antisense; 2'-MOE modified, pattern not given here) [EGFR-1016 MOE]
cGAS 100 nM: 0.315

GTGTCCTTGCACGTGGCTTC (antisense; 2'-MOE modified, pattern not given here) [EGFR-1015 MOE]
cGAS 100 nM: 0.384

AACACTTCGTGGGGTCCTTT (antisense; 2'-MOE modified, pattern not given here) [HPRT-664 MOE]
cGAS 100 nM: 0.615

CTGTGATCTTGACATGCTGC (antisense; 2'-MOE modified, pattern not given here) [EGFR-2790 MOE]
cGAS 100 nM: 0.180

GTCCACATCCTGTGGCTCGT (antisense; 2'-MOE modified, pattern not given here) [CAMSAP1-2906 MOE]
cGAS 100 nM: 0.455

GATGCTCCTCGGTCTCCCTT (antisense; 2'-MOE modified, pattern not given here) [CAMSAP1-1850 MOE]
cGAS 100 nM: 0.413

CGTGTCTGGAAGCTTCCTTT (antisense; 2'-MOE modified, pattern not given here) [CTNN2B-808 MOE]
cGAS 100 nM: 0.426

GAGTCTCTGGAGCTTCCTCT (antisense; 2'-MOE modified, pattern not given here) [CAMSAP1-2456 MOE]
cGAS 100 nM: 0.250

GATGGCCTCCCATCTCCTTC (antisense; 2'-MOE modified, pattern not given here) [HPRT-329 MOE]
cGAS 100 nM: 0.687

GGAGCTTCGAGGCCCCAGGC (MOE modified, pattern not given here) [MB21D1-616 MOE]
cGAS 100 nM: 0.117

TTCTGCAGCTTCCTTGTCCT (antisense; 2'-MOE modified, pattern not given here) [CTNN2B-2136 MOE]
cGAS 100 nM: 0.821

CTTACTTTCCGAGGTGTCCA (antisense; 2'-MOE modified, pattern not given here) [CAMSAP1-1739 MOE]
cGAS 100 nM: 0.473

GCGACTATACGCGCAATATG (antisense; 2'-MOE modified, pattern not given here) [NC5 2′MOE]
cGAS 100 nM: 0.720

CCAACACTTCGTGGGGTCCT (antisense; 2'-MOE modified, pattern not given here) [HPRT-666 MOE]
cGAS 100 nM: 0.557

TTGCCATGCTGGCTCGGACT (antisense; 2'-MOE modified, pattern not given here) [CAMSAP1-2584 MOE]
cGAS 100 nM: 0.518

CAGATAGCACCTTCAGCACT (antisense; 2'-MOE modified, pattern not given here) [CTNN2B-1294 MOE]
cGAS 100 nM: 0.388

GGCATCCACCACGTCGTCCA (antisense; 2'-MOE modified, pattern not given here) [EGFR-3266 MOE]
cGAS 100 nM: 0.478

TGTGATGGCCTCCCATCTCC (antisense; 2'-MOE modified, pattern not given here) [HPRT-332 MOE]
cGAS 100 nM: 0.438

AGGTCTTGGCTTCGTGGAGC (antisense; 2'-MOE modified, pattern not given here) [MB21D1-522 MOE]
cGAS 100 nM: 0.118

TCCAACACTTCGTGGGGTCC (antisense; 2'-MOE modified, pattern not given here) [HPRT-667 MOE]
cGAS 100 nM: 0.799

CACCCACTTGGCAGACCATC (antisense; 2'-MOE modified, pattern not given here) [CTNN2B-1576 MOE]
cGAS 100 nM: 0.658

ACCCACTTGGCAGACCATCA (antisense; 2'-MOE modified, pattern not given here) [CTNN2B-1575 MOE]
cGAS 100 nM: 0.571

ATCCAACACTTCGTGGGGTC (antisense; 2'-MOE modified, pattern not given here) [HPRT-668 MOE]
cGAS 100 nM: 0.744

GCGGAGGTCTTGGCTTCGTG (antisense; 2'-MOE modified, pattern not given here) [MB21D1-526 MOE]
cGAS 100 nM: 0.346

TTGCACACTTCGTACCCAAA (antisense; 2'-MOE modified, pattern not given here) [CAMSAP1-4915 MOE]
cGAS 100 nM: 0.392

ACAACCCCTTTCACCATCCC (antisense; 2'-MOE modified, pattern not given here) [MB21D1-689 MOE]
cGAS 100 nM: 0.658

GGTGGTGGCCACCCATCTCA (antisense; 2'-MOE modified, pattern not given here) [CTNN2B-2479 MOE]
cGAS 100 nM: 0.456

ATGTCCCGCCACTGGATGCT (antisense; 2'-MOE modified, pattern not given here) [EGFR-727 MOE]
cGAS 100 nM: 0.549

TCAAAGGACTGAGGAAAGGG (antisense; 2'-MOE modified, pattern not given here) [CAMSAP1-6273 MOE]
cGAS 100 nM: 0.634

TGTCCTTGCACGTGGCTTCG (antisense; 2'-MOE modified, pattern not given here) [EGFR-1014 MOE]
cGAS 100 nM: 0.515

TGTCTTCATCGGCCCTGCCT (antisense; 2'-MOE modified, pattern not given here) [CAMSAP1-2112 MOE]
cGAS 100 nM: 0.557

GTCTTGGCTTCGTGGAGCAG (antisense; 2'-MOE modified, pattern not given here) [MB21D1-520 MOE]
cGAS 100 nM: 0.291

CTCTTGAAGCATCGTATCAC (antisense; 2'-MOE modified, pattern not given here) [CTNN2B-3648 MOE]
cGAS 100 nM: 0.791

GGTGGTCCACAACCCCTTTC (antisense; 2'-MOE modified, pattern not given here) [MB21D1-697 MOE]
cGAS 100 nM: 0.292

ATGTCCCCTGTTGACTGGTC (antisense; 2'-MOE modified, pattern not given here) [HPRT-489 MOE]
cGAS 100 nM: 0.574

TTGGCTCGGCTTGCCTACTT (antisense; 2'-MOE modified, pattern not given here) [CAMSAP1-5594 MOE]
cGAS 100 nM: 0.295

GCTTCAGGCGCTGCCTTGCC (antisense; 2'-MOE modified, pattern not given here) [CAMSAP1-2709 MOE]
cGAS 100 nM: 0.510
